Consider 23 compounds from patent publication US20260217697A1, “COMPOUNDS COMPRISING HETEROARYL RINGS AND COMPOSITIONS AND METHODS THEREOF” (lonGen Therapeutics Co., Ltd., priority 2022, published 2026).

pIC50: −log10 of the molar value.

The target of this experiment is T1, hTRPV3 (Homo sapiens, UniProt Q8NET8).
T1 construct: The commercially available plasmid with the full-length cDNA of hTRPV3 (791 aa) (NM_001258205.2); host or cells: HEK293T
T1 sequence (Q8NET8 1-791 isoform Q8NET8-2): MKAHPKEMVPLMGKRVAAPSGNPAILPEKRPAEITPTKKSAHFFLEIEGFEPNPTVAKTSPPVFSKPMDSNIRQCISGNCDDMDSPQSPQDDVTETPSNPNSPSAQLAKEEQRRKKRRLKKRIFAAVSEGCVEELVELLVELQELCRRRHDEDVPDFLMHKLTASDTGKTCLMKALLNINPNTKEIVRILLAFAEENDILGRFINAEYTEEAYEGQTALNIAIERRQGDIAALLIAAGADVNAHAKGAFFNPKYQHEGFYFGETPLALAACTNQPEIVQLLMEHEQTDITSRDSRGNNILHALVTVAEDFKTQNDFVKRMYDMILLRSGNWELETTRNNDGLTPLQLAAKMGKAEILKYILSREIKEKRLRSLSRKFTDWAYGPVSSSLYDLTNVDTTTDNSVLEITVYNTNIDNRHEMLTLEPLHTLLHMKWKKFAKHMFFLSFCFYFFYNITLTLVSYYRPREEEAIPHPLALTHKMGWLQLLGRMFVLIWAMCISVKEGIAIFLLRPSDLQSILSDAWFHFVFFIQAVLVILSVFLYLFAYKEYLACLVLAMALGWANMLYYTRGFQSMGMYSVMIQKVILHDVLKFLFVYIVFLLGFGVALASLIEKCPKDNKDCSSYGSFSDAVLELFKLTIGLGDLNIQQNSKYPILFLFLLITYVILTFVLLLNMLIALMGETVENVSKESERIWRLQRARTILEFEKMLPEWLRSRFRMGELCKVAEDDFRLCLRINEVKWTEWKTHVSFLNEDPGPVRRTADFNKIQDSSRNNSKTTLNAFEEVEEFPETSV
Put plainly: Whole-cell patch-clamp recording of hTRPV3 current in transfected HEK293T cells (2-APB induced). Type of experiment: cell-based. Particulars: current induced by 300 μM 2-APB, compounds tested up to 10 μM, room temperature. Here is the method:
Various technologies can be utilized to assess TRPV3 activation in accordance with the present disclosure. For example, in some embodiments, compounds are assessed in in vitro patch clamp experiments. Certain useful procedures are described herein as examples.
In some embodiments, whole-cell patch-clamp recordings were used to detect the current through hTRPV3 channels in the HEK293T cell line transfected with hTRPV3 cDNA and evaluate the exact blocking effect of compounds on hTRPV3. In some embodiments, a perfusion system was adopted to control the extracellular solution, including the addition of the agonist and different antagonists.
HEK293T cells were cultured in a Dulbecco's modified Eagle's medium containing 10% fetal bovine serum (Thermo Scientific) and 1% penicillin/streptomycin (Thermo Scientific) at 37° C. with 5% CO2. The commercially available plasmid with the full-length cDNA of hTRPV3 (791 aa) (NM_001258205.2) was purchased from OriGene Technologies. The transfection of hTRPV3 plasmids was conducted using Lipofectamine™ 3000 following the manufacturer's instructions (Invitrogen).
Whole-cell patch-clamp experiments were performed 18 h post-transfection, using a MultiClamp 700B amplifier driven by pClamp 11 software (Molecular Devices). In order to achieve good single-cell physical separation, HEK293T cells with hTRPV3 expression were digested and then re-plated at low density on glass coverslips. Electrodes were pulled from borosilicate glass with a P-97 micropipette puller (Sutter Instruments) and those with resistances of 3-5 MΩ are used for experiments. In some embodiments, an Ag—AgCl wire was used as a reference electrode and signals are filtered using a 2.9 kHz low-pass Bessel filter. Membrane potential was held at 0 mV. For recording of agonist-induced activation and inhibition by different test compounds, currents were elicited by a protocol consisting of a 400-ms step to +80 mV, followed by a 400-ms step to −80 mV at 2-s intervals. both pipette and bath solutions contained 130 mM NaCl, 0.3 mM EDTA, and 3 mM HEPES (buffered to pH 7.4 with NaOH). All recordings were made at room temperature.
All patch-clamp recordings were analyzed using the Clampfit software and GraphPad Prism 6.0 software. Specifically, data are analyzed by calculating the degree of current amplitude after the test compound addition compared with the unblocked agonist-induced current amplitude. The resulting blocking percentage at each concentration was used to make a concentration-response analysis and fitted to the Hill equation: blocking percentage=minimum blocking percentage+ (maximum blocking percentage-minimum blocking percentage)/(1+10^(Hill slope* […])). The minimum blocking percentage is 0% and maximum blocking percentage is 100%, while the Hill slope and the IC50 were determined as the curve fitting routine. Compounds of interest were tested against hTRPV3 at concentrations up to 10 μM, and certain data was used to estimate IC50 as described herein.

Compound `COc1ncnc(OC)c1C(=O)Nc1nc2c(s1)C1(CCNCC1)Oc1cc(C(F)(F)F)ccc1-2` [compound 45, 4,6-dimethoxy-N-(7-(trifluoromethyl)spiro[chromeno[4,3-d]thiazole-4,4′-piperidin]-2-yl)pyrimidine-5-carboxamide] had a pIC50 of at most 5.00.
The compound `COc1ncnc(OC)c1C(=O)Nc1nc2c(s1)C1(CCN(C)CC1)Oc1cc(C(F)(F)F)ccc1-2` [compound 46, 4,6-dimethoxy-N-(1′-methyl-7-(trifluoromethyl)spiro[chromeno[4,3-d]thiazole-4,4′-piperidin]-2-yl)pyrimidine-5-carboxamide] had a pIC50 of 5.00 to 6.00.
On to `CCOc1ncnc(OCC)c1C(=O)Nc1nc2c(s1)C(CC)(CC)Oc1cc(C(F)(F)F)ccc1-2` [compound 47, N-(4,4-diethyl-7-(trifluoromethyl)-4H-chromeno[4,3-d]thiazol-2-yl)-4,6-diethoxypyrimidine-5-carboxamide], for which the pIC50 is 6.00 to 7.00.
With `CCC1(CC)Oc2cc(C(F)(F)F)ccc2-c2nc(NC(=O)c3c(OCC(F)(F)F)ncnc3OCC(F)(F)F)sc21` [compound 48, N-(4,4-diethyl-7-(trifluoromethyl)-4H-chromeno[4,3-d]thiazol-2-yl)-4,6-bis(2,2,2-trifluoroethoxy)pyrimidine-5-carboxamide] the figure was at most 5.00; with `CCC1(CC)Oc2cc(Br)ccc2-c2nc(NC(=O)c3c(OC)ncnc3OC)sc21` [compound 49, N-(7-bromo-4,4-diethyl-4H-chromeno[4,3-d]thiazol-2-yl)-4,6-dimethoxypyrimidine-5-carboxamide], 5.00 to 6.00; with `CCC1(CC)Oc2cc(C#N)ccc2-c2nc(NC(=O)c3c(OC)ncnc3OC)sc21` [compound 50, N-(7-cyano-4,4-diethyl-4H-chromeno[4,3-d]thiazol-2-yl)-4,6-dimethoxypyrimidine-5-carboxamide], 6.00 to 7.00.
With `CCC1(CC)Oc2cc3c(cc2-c2nc(NC(=O)c4c(OC)ncnc4OC)sc21)OCO3` [compound 51, N-(4,4-diethyl-4H-[1,3]dioxolo[4′,5′: 6,7]chromeno[4,3-d]thiazol-2-yl)-4,6-dimethoxypyrimidine-5-carboxamide], the negative logarithm of the IC50 (pIC50) is at most 5.00.
The same measure for `CCC1(CC)Oc2cc(C(F)(F)F)ccc2-c2nc(NC(=O)c3c(C)ncnc3C)sc21` [compound 52, N-(4,4-diethyl-7-(trifluoromethyl)-4H-chromeno[4,3-d]thiazol-2-yl)-4,6-dimethylpyrimidine-5-carboxamide]: 5.00 to 6.00; for `CCC1(CC)Oc2cc(C(F)(F)F)ccc2-c2nc(N(C)C(=O)c3c(OC)ncnc3OC)sc21` [compound 53]: at most 5.00.
Take `CCC1(CC)Oc2cc(C3CC3)ccc2-c2nc(NC(=O)c3c(OC)ncnc3OC)sc21` [compound 54, N-(7-cyclopropyl-4,4-diethyl-4H-chromeno[4,3-d]thiazol-2-yl)-4,6-dimethoxypyrimidine-5-carboxamide]: the pIC50 was 6.00 to 7.00.
In turn, `C=C(C)c1ccc2c(c1)OC(CC)(CC)c1sc(NC(=O)c3c(OC)ncnc3OC)nc1-2` [compound 55, N-(4,4-diethyl-7-(prop-1-en-2-yl)-4H-chromeno[4,3-d]thiazol-2-yl)-4,6-dimethoxypyrimidine-5-carboxamide] showed a pIC50 of 6.00 to 7.00.
In the case of `CCC1(CC)Oc2cc(C(F)(F)F)ccc2-c2nc(NS(=O)(=O)c3c(OC)ncnc3OC)sc21` [compound 56], the pIC50 is at most 5.00.
As for `CCC1(CC)Oc2cc(C(F)(F)F)ccc2-c2nc(NC(=O)c3c(C)ncnc3OC)sc21` [compound 57, N-(4,4-diethyl-7-(trifluoromethyl)-4H-chromeno[4,3-d]thiazol-2-yl)-4-methoxy-6-methylpyrimidine-5-carboxamide], the pIC50 was 6.00 to 7.00.
Consider `CCC1(CC)Oc2cc(N3CCOCC3)ccc2-c2nc(NC(=O)c3c(OC)ncnc3OC)sc21` [compound 58, N-(4,4-diethyl-7-morpholino-4H-chromeno[4,3-d]thiazol-2-yl)-4,6-dimethoxypyrimidine-5-carboxamide], for which the pIC50 was 5.00 to 6.00.
`COc1ncnc(OC)c1C(=O)Nc1nc2c(s1)C1(CCOCC1)Oc1cc(C(F)(F)F)ccc1-2` [compound 59, 4,6-dimethoxy-N-(7-(trifluoromethyl)-2′,3′,5′,6′-tetrahydrospiro[chromeno[4,3-d]thiazole-4,4′-pyran]-2-yl)pyrimidine-5-carboxamide] had a pIC50 of 6.00 to 7.00.
In turn, `CCC1(CC)Oc2nc(C(F)(F)F)ccc2-c2nc(NC(=O)c3c(OC)ncnc3OC)sc21` [compound 60, N-(4,4-diethyl-7-(trifluoromethyl)-4H-thiazolo[4′,5′: 4,5]pyrano[2,3-b]pyridin-2-yl)-4,6-dimethoxypyrimidine-5-carboxamide] had a negative-log IC50 (pIC50) of 6.00 to 7.00.
The same measure for `CCC1(CC)Oc2cc(C(C)(C)O)ccc2-c2nc(NC(=O)c3c(OC)ncnc3OC)sc21` [compound 61, N-(4,4-diethyl-7-(2-hydroxypropan-2-yl)-4H-chromeno[4,3-d]thiazol-2-yl)-4,6-dimethoxypyrimidine-5-carboxamide]: 5.00 to 6.00.
In turn, `CCOC(=O)c1ccc2c(c1)OC(CC)(CC)c1sc(NC(=O)c3c(OC)ncnc3OC)nc1-2` [compound 62, ethyl 2-(4,6-dimethoxypyrimidine-5-carboxamido)-4,4-diethyl-4H-chromeno[4,3-d]thiazole-7-carboxylate] had a pIC50 of 5.00 to 6.00.
With `COc1ncnc(OC)c1C(=O)Nc1nc2c(s1)C1(CN(C(=O)OC(C)(C)C)C1)Oc1cc(C(F)(F)F)ccc1-2` [compound 63, tert-butyl 2′-(4,6-dimethoxypyrimidine-5-carboxamido)-7′-(trifluoromethyl)spiro[azetidine-3,4′-chromeno[4,3-d]thiazole]-1-carboxylate] the figure was above 7.00; with `COc1ncnc(OC)c1C(=O)Nc1nc2c(s1)C1(CCN(C(C)=O)CC1)Oc1cc(C(F)(F)F)ccc1-2` [compound 64, N-(1′-acetyl-7-(trifluoromethyl)spiro[chromeno[4,3-d]thiazole-4,4′-piperidin]-2-yl)-4,6-dimethoxypyrimidine-5-carboxamide], 6.00 to 7.00; with `COc1ncnc(OC)c1C(=O)Nc1nc2c(s1)C1(COC1)Oc1cc(C(F)(F)F)ccc1-2` [compound 65, 4,6-dimethoxy-N-(7-(trifluoromethyl)spiro[chromeno[4,3-d]thiazole-4,3′-oxetan]-2-yl)pyrimidine-5-carboxamide], 6.00 to 7.00.
The compound `COCC1(COC)Oc2cc(C(F)(F)F)ccc2-c2nc(NC(=O)c3c(OC)ncnc3OC)sc21` [compound 66, N-(4,4-bis(methoxymethyl)-7-(trifluoromethyl)-4H-chromeno[4,3-d]thiazol-2-yl)-4,6-dimethoxypyrimidine-5-carboxamide] gave a pIC50 of 6.00 to 7.00.
In turn, `COc1ncnc(OC)c1C(=O)Nc1nc2c(s1)C1(CNC1)Oc1cc(C(F)(F)F)ccc1-2` [compound 67, 4,6-dimethoxy-N-(7′-(trifluoromethyl)spiro[azetidine-3,4′-chromeno[4,3-d]thiazol]-2′-yl)pyrimidine-5-carboxamide] gave a pIC50 of at most 5.00.
